# In patent publication US7863350B2, “Food preservation compositions and methods of use thereof” (priority 2007, dated 2011):
# “And” between values parts separate entries of the source, which are not always exact repeats. Equal values may be shown once.
# How the values were obtained:
# yeast and mold = conditions: 4° C., up to 10 days
# Salmonella spp. = experiment: Survival of Salmonella spp. in packaged sliced tomato with volatile oils at about 11° C.; type: cell-based; conditions: for Salmonella on sliced tomatoes, Day 9: 9 days at about 11° C.
# Source text: The effect of origanum, basil, and cinnamaldehyde oils on the survival of Salmonella sp. in packaged sliced tomato was studied. Five Salmonella serotypes were used namely, S. poona (cantaloupe associated outbreak), S. stanley H 1256 (Alfa Alfa sprout associated outbreak), S. baildon (tomato associated outbreak), S. typhimurium DT 104 and S. montevideo (tomato associated outbreak). Five μl of the cocktail was inoculated on top of three tomato slices in package to have a target inoculum of 5×10^6 CFU/slice. Then, 12, 35, and 75 μl of each volatile antimicrobial agent were pipetted into the wells of the separate packages. The packages were stored at 11° C. for 9 days. After 8 days of incubation mold was observed on some slices in some packages.
# The inoculated tomato slices were analyzed at day 0 and 9. Each slice was mixed with 90 ml 0.1% peptone water and stomached for 1 min. Next, 1 ml of the stomached material was diluted in 9 ml 0.1% peptone and spiral plated on MacCkonkey agar plates. The plates were incubated at 37° C. for 18 hr.
# The data was analyzed by the General Linear Method using SAS 9.1. […] All results are for Day 9 except for the control. All day 0 counts were the same as the control. […] The other results include both the volatile antimicrobial agent and absorbent materials.
# Salmonella sp. [1] = experiment: Survival of Salmonella on sliced tomato packaged with volatile antimicrobials at about 4° C. (Example 2); type: cell-based; conditions: for effectiveness against Salmonella on slices: 10 days, origanum 150 μl, basil 75 μl, chlorine dioxide in absorbent or as spray, cyclodextrine forms high level, cinnamaldehyde 35 μl with spray
# Protocol: The effect of volatile antimicrobials on the survival of Salmonella sp. in packaged sliced tomato was determined. The antimicrobials tested were origanum oil, basil oil, cyclodextrine cinnamaldehyde, chlorine dioxide as spray and in absorbent, and allyl isothiocyanate in cyclodextrine. The combinations of cinnamaldehyde with chlorine dioxide and allyl isothiocyanate in cyclodextrine with cinnamaldehyde were also tested.
# (§1) Slices were inoculated with 5 Salmonella strains that included S. poona (cantaloupe associated outbreak), S. stanley H 1256 (Alfafa sprout associated outbreak), S. baildon (tomato associated outbreak), S. typhimurium DT 104 (multiple antibiotic resistant) and S. montevideo (tomato associated outbreak). […] Then, the specified volatile antimicrobials were pipetted into the wells of each package. The inoculated packages were stored at 4±1° C. for 10 days.
# (§2) Inoculated and uninoculated tomato slices were analyzed at days 0 and 10. […] The diluted samples were plated on MacCkonkey agar plates. The plates were incubated at 37° C. for 18 hr and typical Salmonella colonies counted.
# aerobic microflora [2] = experiment: Aerobic Plate Count of the absorbent in trays after 11 days (Example 2); type: cell-based; conditions: for growth inhibition (APC) in the absorbent over the control absorbent: about 4° C.
# Protocol: (§3) The absorbent in the trays was analyzed for aerobic plate count and salmonella levels at the conclusion of the study. The data was obtained on day 11.
# Salmonella [3] = experiment: Salmonella in the absorbent in trays after 11 days (Example 2); type: cell-based; conditions: about 4° C.
# Protocol: as §3
# Salmonella [4] = experiment: Location of viable Salmonella on tomato slices after storage with antimicrobials; type: cell-based; conditions: about 4° C.; for viable Salmonella in Portion 1: Table 5
# Protocol: as §1, §2
# Tomato slices were inoculated with Salmonella between slices and placed in trays. […] The day 0 data (data is taken the day after inoculation) presented in Table 4 indicates no difference in the location of the inoculum between the Control 1 trays and the Control 2 tray at “0” time. After 10 days of storage, slices still had Salmonella distributed throughout; however, the distribution differed between Control 1 trays and Control 2 trays. The Salmonella in the Control 2 trays were located primarily at the top most portion of the slice (average of 72% of Salmonella on the top skin), whereas the Control 1 trays had high numbers at the bottom of the slice (average of 41% in bottom two portions). The total number of Salmonella increased on the slices to a similar extent for both tray types (Table 1).
# [5] = system: pathogenic and aerobic microorganisms
# Salmonella [6] = experiment: Salmonella counts in the absorbent/juice from trays after 10 days (Example 3); type: cell-based; conditions: about 4° C.
# Protocol: (§4) Inoculated and uninoculated tomato slices were analyzed at 0, 5 and 10 days. […] The plates were incubated at 37° C. for 18 hr and typical Salmonella colonies counted. The absorbent (fluid in case of Control 1 trays) was analyzed for Salmonella and Aerobic Plate Count by plating appropriate dilution of the gel/fluid on MacConkey agar plates and Plate Count Agar.
# aerobic microflora [7] = experiment: Aerobic plate count in the absorbent/juice from trays after 10 days (Example 3); type: cell-based; conditions: about 4° C.
# Protocol: as §4
# Salmonella sp. [8] = experiment: Survival of Salmonella on sliced tomatoes with low levels of antimicrobials at 4° C. (Example 3); type: cell-based; conditions: for Survival of Salmonella on sliced tomatoes, 5 days: about 4° C.
# Protocol: The effect of low levels of specified antimicrobials on survival of Salmonella sp. in packaged sliced tomato under refrigeration (4±1° C.) was determined. The volatile antimicrobials tested were chlorine dioxide, allyl isothiocyanate cyclodextrine, origanum cyclodextrine, cinnamaldehyde cyclodextrine and basil cyclodextrine.
# Slices were inoculated with 5 Salmonella strains that included S. poona (cantaloupe associated outbreak), S. stanley H 1256 (Alfafa sprout associated outbreak), S. baildon (tomato associated outbreak), S. typhimurium DT 104 (multiple antibiotic resistant) and S. montevideo (tomato associated outbreak). […] The inoculated packages were stored at 4±1° C. for 10 days.
# as §4
smiles,measurement,setting,value
"O=C(O)CC(O)(CC(=O)O)C(=O)O [Citric acid, citric acid]",yeast and mold growth in tomato juice in gel,yeast and mold,little effect
"O=CC=Cc1ccccc1 [Cinnamaldehyde, cinnamaldehyde]","Salmonella on sliced tomatoes, Day 9",Salmonella spp.; 12 μl per package,5.76 ± 0.34 Log CFU/Slice
same,"Salmonella on sliced tomatoes, Day 9",Salmonella spp.; 35 μl per package,5.34 ± 0.02 Log CFU/Slice
same,Salmonella population,"Salmonella spp.; 9 days, 11° C., origanum 35 or 75, basil 12, cinnamaldehyde 12 and 35 μl",declined significantly
same,relative antimicrobial potency,"Salmonella spp.; among origanum, basil and cinnamaldehyde oils",most potent antimicrobial
same,Survival of Salmonella on sliced tomatoes (Table 3),"Salmonella sp. [1]; Day 10, 35 μl",4.78^fg Log CFU/Slice
same,Survival of Salmonella on sliced tomatoes (Table 3),"Salmonella sp. [1]; Day 10, 75 μl",4.67^fg Log CFU/Slice
same,growth inhibition (APC) in the absorbent over the control absorbent,aerobic microflora [2],little growth inhibition
same,Salmonella in the absorbent in trays (Table 9),Salmonella [3]; 35 μl,2.83 Log CFU/ml
same,Salmonella in the absorbent in trays (Table 9),Salmonella [3]; 75 μl,2.04 Log CFU/ml
same,viable Salmonella in Portion 1,"Salmonella [4]; Day 10, 75 μl",75 % of total survivors and 73 % of total survivors and 87 % of total survivors and 91 % of total survivors
"C/C=C/C=C/C(=O)[O-].[K+] [Potassium sorbate, potassium sorbate]",yeast and mold growth in tomato juice in gel,yeast and mold,allows little growth
same,effectiveness of higher vs lower levels,[5],marginally more effective
same,inhibition of growth of pathogenic and aerobic microorganisms in the gel/tomato juice mixture,[5],effective at inhibiting growth
same,bacteria in tomato juice in gel,"total bacterial count; 4° C., up to 10 days",kills bacteria
same,"preservation of the gel / growth of yeast, mold and bacteria compared to the control","total bacterial count; 10 day period, 4° C. storage temperature",adequate to preserve the gel
"[O][Cl+][O-] [Chlorine Dioxide, chlorine dioxide]",Salmonella in the absorbent/juice,Salmonella [6]; 0.024 g per tray,3.26 Log CFU/g
same,Salmonella in the absorbent/juice,Salmonella [6]; 0.052 g per tray,4.39 Log CFU/g
same,Salmonella in the absorbent/juice,Salmonella [6]; 0.112 g per tray,4.43 Log CFU/g
same,Salmonella in the absorbent/juice,Salmonella [6]; 0.4 g per tray,3.77 Log CFU/g
same,killing of Salmonella that dripped into the absorbent,Salmonella [6]; AITC at 36,reduced the pathogen numbers
same,effectiveness against Salmonella on slices,Salmonella sp. [1],most effective
same,effectiveness against Salmonella on slices,Salmonella sp. [1]; listed as Chlorine dioxide spray,little effect
same,Survival of Salmonella on sliced tomatoes (Table 2),Salmonella sp. [1]; Day 0,4.88 Log CFU/Slice
same,Survival of Salmonella on sliced tomatoes (Table 3),"Salmonella sp. [1]; Day 0, spray 2.54 ml/tray",5.27^bcd Log CFU/Slice
same,Survival of Salmonella on sliced tomatoes (Table 2),"Salmonella sp. [1]; Day 10, chlorine dioxide in absorbent, amount not given",4.32 Log CFU/Slice
same,Survival of Salmonella on sliced tomatoes (Table 3),"Salmonella sp. [1]; Day 10, spray 2.54 ml/tray",5.17^cde Log CFU/Slice
same,Aerobic Plate Count in the absorbent/juice,aerobic microflora [7]; 0.024 g per tray,<2.3 Log CFU/g
same,Aerobic Plate Count in the absorbent/juice,aerobic microflora [7]; 0.052 g per tray,4.62 Log CFU/g
same,Aerobic Plate Count in the absorbent/juice,aerobic microflora [7]; 0.112 g per tray,5.1 Log CFU/g
same,Aerobic Plate Count in the absorbent/juice,aerobic microflora [7]; 0.25 g per tray,<2.3 Log CFU/g
same,Aerobic Plate Count in the absorbent/juice,aerobic microflora [7]; 0.4 g per tray,<2.3 Log CFU/g
same,Aerobic Plate Count of the absorbent in trays (Table 6),"aerobic microflora [2]; 4° C., chlorine dioxide, amount not given",4.63 Log CFU/ml
same,growth inhibition (APC) in the absorbent over the control absorbent,aerobic microflora [2],did not produce much additional growth inhibition
same,growth inhibition (APC) in the absorbent over the control absorbent,aerobic microflora [2]; listed as chlorine dioxide spray,increased growth inhibition
same,Salmonella in the absorbent in trays (Table 8),"Salmonella [3]; chlorine dioxide, amount not given",1.40 Log CFU/ml
same,Salmonella in the absorbent in trays (Table 9),Salmonella [3]; spray,2.21 Log CFU/ml
same,"Survival of Salmonella on sliced tomatoes, 5 days",Salmonella sp. [8]; 0.024 g per tray,6.32 Log CFU/g
same,"Survival of Salmonella on sliced tomatoes, 5 days",Salmonella sp. [8]; 0.052 g per tray,5.61 Log CFU/g
same,"Survival of Salmonella on sliced tomatoes, 5 days",Salmonella sp. [8]; 0.112 g per tray,5.90 Log CFU/g
same,"Survival of Salmonella on sliced tomatoes, 5 days",Salmonella sp. [8]; 0.25 g per tray,5.65 Log CFU/g
same,"Survival of Salmonella on sliced tomatoes, 5 days",Salmonella sp. [8]; 0.4 g per tray,5.96 Log CFU/g
same,"Survival of Salmonella on sliced tomatoes, 10 days","Salmonella sp. [8]; 10 days, 4° C., 0.024 g per tray",5.89 Log CFU/g
same,"Survival of Salmonella on sliced tomatoes, 10 days","Salmonella sp. [8]; 10 days, 4° C., 0.052 g per tray",5.65 Log CFU/g
same,"Survival of Salmonella on sliced tomatoes, 10 days","Salmonella sp. [8]; 10 days, 4° C., 0.112 g per tray",5.42 Log CFU/g
same,"Survival of Salmonella on sliced tomatoes, 10 days","Salmonella sp. [8]; 10 days, 4° C., 0.25 g per tray",5.32 Log CFU/g
same,"Survival of Salmonella on sliced tomatoes, 10 days","Salmonella sp. [8]; 10 days, 4° C., 0.4 g per tray",5.15 Log CFU/g
same,effect on Salmonella on tomato slices,"Salmonella sp. [8]; 10 days, 4° C., added to absorbent",significantly reduced levels
same,viable Salmonella in Portion 1 (top portion of skin),"Salmonella [4]; Table 4, Day 10, chlorine dioxide, amount not given",70 % of total survivors and 69 % of total survivors and 81 % of total survivors
same,viable Salmonella in Portion 1,"Salmonella [4]; Day 0, spray, listed as Chlorine Dioxide Spray",56 % of total survivors and 55 % of total survivors and 79 % of total survivors
